# Test results: US20090227533A1, “miR-34 Regulated Genes and Pathways as Targets for Therapeutic Intervention” (priority 2007, published 2009)
# Legend:
# SCLC and NSCLC cells = conditions: various lung cancer cells (Tsai et al., 1993; Ohsaki et al., 1992); cited from earlier work
# H226 cells = assay: Alamar Blue proliferation assay, lung cancer cells (electroporation); type: cell-based, human; conditions: normalized to NC (100%)
# From the text: (§1) The inventors assessed the therapeutic effect of hsa-miR-34a for lung cancer by using eight individual lung cancer cell lines. To measure cellular proliferation of lung cancer cells, the following non-small cell lung cancer (NSCLC) cells were used: cells derived from lung adenocarcinoma (A549, H522, Calu-3, HCC2935), cells derived from lung squamous cell carcinoma (H226), cell derived from lung adenosquamous cell carcinoma (H596), cells derived from lung bronchioalveolar carcinoma (H1650), and cells derived from lung large cell carcinoma (H460). Synthetic hsa-miR-34a (Pre-miR™-hsa-miR-34a, Ambion cat. no. AM17100) or negative control (NC) miRNA (Pre-miR™ microRNA Precursor Molecule-Negative Control #2; Ambion cat. no. AM17111) was delivered via lipid-based transfection into A549, H522, H596, Calu-3, HCC2935, H1650, H460 cells and via electroporation into H226 cells.
# Lipid-based reverse transfections were carried out in triplicate according to a published protocol (Ovcharenko et al., 2005) and the following parameters: cells (5,000-12,000 per 96 well), 0.1-0.2 μl Lipofectamine™ 2000 (cat. no. 11668-019, Invitrogen Corp., Carlsbad, Calif., USA) in 20 μl OptiMEM (Invitrogen), 30 nM final concentration of miRNA in 100 μl. Electroporation of H226 cells was carried out using the BioRad Gene Pulser Xcell™ instrument (BioRad Laboratories Inc., Hercules, Calif., USA) with the following settings: 5×10^6 cells with 5 μg miRNA in 200 μl OptiMEM (1.6 μM miRNA), square wave pulse at 250 V for 5 ms. Electroporated H226 cells were seeded at 7,000 cells per 96-well in a total volume of 100 μl. All cells except for Calu-3 cells were harvested 72 hours post transfection or electroporation for assessment of cellular proliferation. Calu-3 cells were harvested 10 days post transfection. Proliferation assays were performed using Alamar Blue (Invitrogen) following the manufacturer's instructions. As a control for inhibition of cellular proliferation, siRNA against the motor protein kinesin 11, also known as Eg5, was used. […]
# H1650 cells = assay: Alamar Blue proliferation assay, lung cancer cells; type: cell-based, human; conditions: normalized to NC (100%)
# From the text: as §1
# (§2) Lipid-based reverse transfections were carried out in triplicate according to a published protocol (Ovcharenko et al., 2005) and the following parameters: cells (5,000-12,000 per 96 well), 0.1-0.2 μl Lipofectamine™ 2000 (cat. no. 11668-019, Invitrogen Corp., Carlsbad, Calif., USA) in 20 μl OptiMEM (Invitrogen), 30 nM final concentration of miRNA in 100 μl. Electroporation of H226 cells was carried out using the BioRad Gene Pulser Xcell™ instrument (BioRad Laboratories Inc., Hercules, Calif., USA) with the following settings: 5×10^6 cells with 5 μg miRNA in 200 μl OptiMEM (1.6 μM miRNA), square wave pulse at 250 V for 5 ms. Electroporated H226 cells were seeded at 7,000 cells per 96-well in a total volume of 100 μl. All cells except for Calu-3 cells were harvested 72 hours post transfection or electroporation for assessment of cellular proliferation. Calu-3 cells were harvested 10 days post transfection. Proliferation assays were performed using Alamar Blue (Invitrogen) following the manufacturer's instructions. As a control for inhibition of cellular proliferation, siRNA against the motor protein kinesin 11, also known as Eg5, was used. Eg5 is essential for cellular survival of most eukaryotic cells and a lack thereof leads to reduced cell proliferation and cell death (Weil et al., 2002). siEg5 was used in lipid-based transfection following the same experimental parameters that apply to miRNA. The inventors also used a DNA topoisomerase II inhibitor, etoposide, at a final concentration of 10 μM and 50 μM as an internal standard for the potency of miRNAs. Etoposide is an FDA-approved DNA topoisomerase II inhibitor in the treatment of lung cancer. […] Percent (%) proliferation values from the Alamar Blue assay were normalized to values from cells treated with negative control miRNA. Percent proliferation of hsa-miR-34a treated cells relative to cells treated with negative control miRNA (100%) is shown in Table 7 and in FIG. 1.
# A549 cells = assay: Alamar Blue proliferation assay, lung cancer cells; type: cell-based, human; conditions: normalized to NC (100%)
# From the text: as §1, §2
# Calu-3 cells = assay: Alamar Blue proliferation assay, lung cancer cells; type: cell-based, human; conditions: Calu-3, normalized to NC (100%)
# From the text: as §1, §2
# H596 cells = assay: Alamar Blue proliferation assay, lung cancer cells; type: cell-based, human; conditions: normalized to NC (100%)
# From the text: as §1, §2
# H460 cells = assay: Alamar Blue proliferation assay, lung cancer cells; type: cell-based, human; conditions: normalized to NC (100%)
# From the text: as §1, §2
# H522 cells = assay: Alamar Blue proliferation assay, lung cancer cells; type: cell-based, human; conditions: normalized to NC (100%)
# From the text: as §1, §2
# H460 lung cancer cells = assay: Alamar Blue proliferation assay with pair-wise miRNA combinations; type: cell-based, human; conditions: normalized to 600 pM negative control miRNA
# From the text: miRNAs function in multiple pathways controlling multiple cellular processes. Cancer cells frequently show aberrations in several different pathways, which determine their oncogenic properties. […] The inventors assessed the efficacy of pair-wise miRNA combinations, administering hsa-miR-34a concurrently with either hsa-miR-124a, hsa-miR-126, hsa-miR-147, hsa-let-7b, hsa-let-7c or hsa-let-7g (Pre-miR™ miRNA, Ambion cat. no. AM17100). H460 lung cancer cells were transiently reverse-transfected in triplicate with each miRNA at a final concentration of 300 pM, resulting in 600 pM of total oligonucleotide. For negative controls, 600 pM of Pre-miR™ microRNA Precursor Molecule-Negative Control #2 (Ambion cat. no. AM17111) were used. To correlate the effect of various combinations with the effect of the sole miRNA, each miRNA at 300 pM was also combined with 300 pM negative control miRNA. Reverse transfection was carried out using the following parameters: 7,000 cells per 96 well, 0.15 μl Lipofectamine™ 2000 (Invitrogen) in 20 μl OptiMEM (Invitrogen), 100 μl total transfection volume. […] Cells were harvested 72 hours after transfection and subjected to Alamar Blue assays (Invitrogen). Percent proliferation values from the Alamar Blue assays were normalized to those obtained from cells treated with 600 pM negative control miRNA. Data are expressed as % proliferation relative to negative control miRNA-treated cells (Table 8, FIG. 3).
# Additive activity of pair-wise combinations (e.g., hsa-miR-34a plus hsa-miR-147) is defined as an activity that is greater than the sole activity of each miRNA (e.g., the activity of hsa-miR-34a plus hsa-miR-147 is greater than that observed for hsa-miR-34a plus NC and the activity of hsa-miR-34a plus hsa-miR-147 is greater than that observed for hsa-miR-147 plus NC). Synergistic activity of pair-wise combinations is defined as an activity that is greater than the sum of the sole activity of each miRNA (e.g., the activity of hsa-miR-34a plus hsa-let-7g is greater than that observed for the sum of the activity of hsa-miR-34a plus NC and the activity of hsa-let-7g plus NC). […] The combinatorial use of miRNAs represents a potentially useful therapy for cancer and other diseases.
smiles,measurement,setting,value
"COc1cc([C@@H]2c3cc4c(cc3[C@@H](O[C@@H]3O[C@@H]5CO[C@@H](C)O[C@H]5[C@H](O)[C@H]3O)[C@H]3COC(=O)[C@H]23)OCO4)cc(OC)c1O [Etoposide, etoposide]",IC50,SCLC and NSCLC cells,1 to 25 µM
same,% proliferation,H226 cells; etoposide 10 μM,28.17%
same,% proliferation,H226 cells; etoposide 50 μM,9.33%
same,% proliferation,H1650 cells; etoposide 10 μM,90.98%
same,% proliferation,H1650 cells; etoposide 50 μM,60.31%
same,% proliferation,A549 cells; etoposide 10 μM,49.13%
same,% proliferation,A549 cells; etoposide 50 μM,42.18%
same,% proliferation,Calu-3 cells; etoposide 10 μM,20.81%
same,% proliferation,Calu-3 cells; etoposide 50 μM,13.53%
same,% proliferation,H596 cells; etoposide 10 μM,88.75%
same,% proliferation,H596 cells; etoposide 50 μM,73.39%
same,% proliferation,H460 cells; etoposide 10 μM,32.13%
same,% proliferation,H460 cells; etoposide 50 μM,27.82%
same,% proliferation,H522 cells; etoposide 10 μM,82.13%
same,% proliferation,H522 cells; etoposide 50 μM,61.08%
same,% proliferation,H460 lung cancer cells; etoposide 10 μM,20.19%
same,% proliferation,H460 lung cancer cells; etoposide 50 μM,14.94%
